{"source": "patent US20210386828A1", "about": "“METHODS FOR ENHANCING CANCER IMMUNOTHERAPY” (The Regents of the University of California, priority 2018, published 2021)", "key": {"Myc-CaP cells [1]": {"test_system": "Myc-CaP cells", "test": "qRT-PCR of MHC-I component mRNAs in Myc-CaP cells", "type": "cell-based, mouse", "conditions": "for effect of exogenous IFNγ on induction of MHC-I antigen presentation and processing genes by the platinoid: plus IFNγ", "excerpt": "(§1) Each dot represents an experiment and horizontal lines denote the median."}, "Myc-CaP cells [2]": {"test_system": "Myc-CaP cells", "test": "Surface MHC (H-2Kq) expression by flow cytometry", "type": "cell-based, mouse", "conditions": "for surface expression of H-2Kq: agent as named; for effect on the H-2Kq response to IFNγ: platinoid plus IFNγ", "excerpt": "as §1"}, "Myc-CaP cells [3]": {"test_system": "Myc-CaP cells", "quoted_text": "(§2) CRISPR-Cas9 was used to ablate cyclic GMP-AMP synthase (cGAS, encoded by Mb21d1) and Ifnar2 (FIG. 11K)."}, "[4]": {"test_system": "Myc-CaP and TRAMP-C2 cells", "test": "RNA-seq of mouse PCa cells incubated with platinoids", "type": "cell-based", "conditions": "2 μM, Myc-CaP", "description": "FIGS. 1E-1G show total RNA from Myc-CaP cells incubated with indicated agents for 24 hr was subjected to RNA-seq. Top 20 hallmark gene sets were sorted by normalized enrichment score (NES). Immune-related gene sets are in blue (IFNγ signaling in light blue).\nThe top 20 hallmark gene sets sorted by normalized enrichment score (NES) are shown to depict the Oxali- and Cis-induced responses determined by GSEA analysis. Immune-related gene sets are colored blue (IFNγ signaling in light blue). […] Immune-related gene sets are in blue (IFNγ signaling in light blue).\nTo investigate how low-dose Oxali affects the PCa transcriptome, RNA sequencing (RNA-seq) was conducted on mouse PCa cells (Myc-CaP and TRAMP-C2) incubated with 2 μM of either Oxali or Cisplatin (Cis), a platinoid that, unlike Oxali, minimally enhances the response to PD-L1 blockade or ISP ablation (Pfirschke et al., 2016; Shalapour et al., 2015)."}, "Myc-CaP cells [5]": {"test_system": "Myc-CaP cells", "test": "Immunoblot of IRF1 and phosphorylated STAT1", "type": "cell-based, mouse", "excerpt": "Protein loading was confirmed with tubulin antibodies.\nThe basis for the synergy between low-dose Oxali and IFNγ was investigated. […] Given the ability of Oxali to induce Ifngr2 mRNA expression, not only in Myc-CaP cells (FIG. 2D) but also in mouse and human melanoma cell lines (FIGS. 11C and 11D), it was postulated that the synergistic activation of IRF1 and STAT1 by Oxali plus IFNγ may be due to IFNγR2 induction."}, "Myc-CaP cells [6]": {"test_system": "Myc-CaP cells", "test": "Nuclear abundance of transcription factors (IB, flow cytometry)", "type": "cell-based, mouse", "conditions": "2 μM Oxali"}, "MC-38 cells": {"test_system": "MC-38 cells", "test": "Mass spectrometry peptidomic profiling of H-2Kb and H-2Db bound peptides", "type": "cell-based, mouse", "conditions": "H-2Db experiment", "method": "Tubulin was used as loading control.\nTo confirm the ability of Oxali to potentiate antigen presentation, mass spectrometry-based peptidomic profiling of H-2Kb and H-2Db molecules isolated from MC-38 cells was conducted."}, "Myc-CaP cells [7]": {"test_system": "Myc-CaP cells", "test": "Stress, DNA damage and type I IFN responses (IB, qRT-PCR)", "quoted_text": "as §2"}, "p300/CBP": {"test_system": "p300/CBP", "test": "p300 immunoblot and imaging", "type": "cell-based, mouse", "conditions": "high resolution imaging"}, "Myc-CaP cells [8]": {"test_system": "Myc-CaP cells", "test": "ATAC-seq of chromatin accessibility", "type": "cell-based, mouse", "excerpt": "FIGS. 4A-4D are pictorial and graphical diagrams showing low dose Oxali alters chromatin accessibility of MHC-I related genes. […] The Venn diagram compares gene expression between untreated and differently treated cells (left). The heat map depicts differentially expressed genes involved in the indicated pathways (right). […] The Venn diagram presents the number of binding site changes and overlaps after each treatment (left). FIGS. 4C-4D show detailed ATAC seq analyses of the Nfkb1 gene (FIG. 4C) and a mouse Chr17 gene cluster containing Psmb8, Psmb9, Tap1 and Tap2 (FIG. 4D). Changes in transcription factor (TF) binding site accessibility are compared to RNA seq results. The affected TF binding sites are depicted below each panel.\nFIGS. 12A-12C are pictorial and graphical diagrams showing that low dose Oxali enhances chromatin accessibility of MHC-I related genes.\nTo better understand the transcriptional mechanisms underlying the response to Oxali, RNA-seq and ATAC-seq analyses were conducted on Myc-CaP cells that were incubated with either 2 μM Oxali, 1 ng/mL IFNγ, or a combination of the two. By coupling ATAC-seq, a method for assessing transcription factor binding site accessibility (Buenrostro et al., 2015), with RNA-seq, transcription factor loading can be correlated with actual transcriptional changes.\nOf note, the NF-κB pathway, represented by the Nfkb1 gene, was stimulated by Oxali but not IFNγ. […] To examine activation of the antigen processing and presentation pathway, a gene cluster on mouse chromosome 17 harboring Psmb9, Tap1, Psmb8, and Tap2 was analyzed. […] However, IFNγ further enhanced transcription factor accessibility in Oxali-treated cells (FIG. 4D), an effect that was consistent with the transcriptomic analysis (FIG. 4A). […] Similarly, the Erap1 locus, which is induced by both Oxali and IFNγ, was made more accessible by Oxali relative to IFNγ treatment (FIG. 12C). […] The addition of IFNγ expanded this response to include E2F6, JUNB, HIF-lb, KLF3, and DMRT6 binding sites. Of note, the chromosome 17 MHC-I region opened by Oxali contained recognition sites for BORIS and CTCF, two general transcription factors responsible for chromatin opening (Li et al., 2012)."}, "[9]": {"conditions": "cells incubated with Oxali or Oxali+IFNγ"}}}
{"compound": "N.N.O=C([O-])C1(C(=O)[O-])CCC1.[Pt+2]", "note": "[Carbo, carboplatin]", "values": [{"measurement": "effect of exogenous IFNγ on induction of MHC-I antigen presentation and processing genes by the platinoid", "setting": "Myc-CaP cells [1]", "result": "not as strong as that of Oxali+IFNγ"}, {"measurement": "surface expression of H-2Kq", "setting": "Myc-CaP cells [2]", "result": "barely induced surface H-2Kq"}, {"measurement": "effect on the H-2Kq response to IFNγ", "setting": "Myc-CaP cells [2]", "result": "potentiated the response to IFNγ"}]}
{"compound": "N.N.[Cl][Pt][Cl]", "note": "[Cis, Cisplatin]", "values": [{"measurement": "effect of exogenous IFNγ on induction of MHC-I antigen presentation and processing genes by the platinoid", "setting": "Myc-CaP cells [1]", "result": "not as strong as that of Oxali+IFNγ"}, {"measurement": "γH2AX, marker of DNA damage", "setting": "Myc-CaP cells [3]", "result": "γH2AX induction"}, {"measurement": "induction of gene set responsive to NF-κB-dependent TNF signaling", "setting": "[4]", "result": "strongly induced"}, {"measurement": "effect on IRF1 induction by IFNγ", "setting": "Myc-CaP cells [5]; added to IFNγ", "result": "strongly potentiated"}, {"measurement": "STAT1 phosphorylation", "setting": "Myc-CaP cells [5]; added to IFNγ-treated cells", "result": "dramatically increased"}, {"measurement": "surface expression of H-2Kq", "setting": "Myc-CaP cells [2]", "result": "barely induced surface H-2Kq"}, {"measurement": "effect on the H-2Kq response to IFNγ", "setting": "Myc-CaP cells [2]", "result": "potentiated the response to IFNγ"}, {"measurement": "nuclear abundance of p65, NF-κB, CREB1, ATF3, P-ATM and JunB", "setting": "Myc-CaP cells [6]", "result": "more transient and weaker effect"}]}
{"compound": "COc1c(Cl)cc2c([nH]c3cnccc32)c1NC(=O)c1cccnc1C", "note": "[ML120B]", "values": [{"measurement": "synergistic Psmb9 and Nlrc5 mRNA induction under IKKβ inhibition", "setting": "Myc-CaP cells [1]; Oxali+IFNγ", "result": "attenuated"}, {"measurement": "decrease in Ifngr2 mRNA", "setting": "Myc-CaP cells [1]; [9]", "result": 4, "unit": "fold"}, {"measurement": "H-2Kq surface expression under IKKβ inhibition", "setting": "Myc-CaP cells [2]; [9]", "result": "reduced"}]}
{"compound": "Cc1[nH]c2ccccc2c1CCNCc1ccc(/C=C/C(=O)NO)cc1", "note": "[Panabinostat]", "values": [{"measurement": "transcriptional response (MHC-I gene induction) compared with low dose Oxali", "setting": "Myc-CaP cells [1]; HDAC inhibitor", "result": "nearly the same transcriptional response as low dose Oxali"}, {"measurement": "Tap1, Nlrc5, Tapasin, Lmp2, and Ifngr2 mRNAs", "setting": "Myc-CaP cells [1]; dose that did not induce cell death", "result": "induced"}, {"measurement": "surface H-2Kq expression on addition of low dose Oxali", "setting": "Myc-CaP cells [2]; Panabinostat plus low dose Oxali", "result": "potentiated"}, {"measurement": "surface expression of H-2Kq", "setting": "Myc-CaP cells [2]", "result": "induced"}]}
{"compound": "IFNγ: exogenous interferon gamma", "values": [{"measurement": "effect on MHC-I genes compared with low-dose Oxali", "setting": "Myc-CaP cells [1]; IFNγ at 200 pg/mL, Myc-CaP and other cell lines", "result": "weaker than the effect of low-dose (2 μM) Oxali"}, {"measurement": "Ifngr2 mRNA", "setting": "Myc-CaP cells [1]; IFNγ on its own, any of the analyzed cell lines", "result": "did not induce"}, {"measurement": "amounts of H-2Db MHC-I-bound peptides", "setting": "MC-38 cells", "result": "higher amounts of MHC-I-bound peptides than Oxali treated cells"}, {"measurement": "IRF1 expression", "setting": "Myc-CaP cells [5]; Oxali at 2 μM", "result": "weak IRF1 induction"}, {"measurement": "eIF2α phosphorylation and CHOP expression", "setting": "Myc-CaP cells [7]", "result": "no effect"}, {"measurement": "nuclear foci / nucleolar localization of p300", "setting": "p300/CBP", "result": "not"}, {"measurement": "transcription factor accessibility of chromosome 17 cluster Psmb9, Tap1, Psmb8, Tap2", "setting": "Myc-CaP cells [8]", "result": "barely affected"}, {"measurement": "accessibility of transcription factor binding sites at the Nfkb1 locus", "setting": "Myc-CaP cells [8]; 2 μM Oxali, 1 ng/mL IFNγ", "result": "barely had any effect"}]}
